Columns and labels:
[1] = target: T1, KDR(h) (Homo sapiens, UniProt P35968); assay: Upstate KinaseProfiler enzyme assay, KDR; type: biochemical; settings: 500 nM compound; read-out: Percent inhibition at 500 nM KDR(h)
T1 construct: purchased Upstate Biotechnology (Dundee, UK), KinaseProfiler service
Protocol: (§1) Further enzyme assays were conducted at Upstate Biotechnology (Dundee, UK) in the KinaseProfiler™ Assay system.
(§2) The general protocol is as follows. All kinases are pre-diluted to a 10× working concentration prior to addition into the assay. The composition of the dilution buffer for the kinases is 20 mM MOPS pH 7.0, 1 mM EDTA, 0.1% β-mercaptoethanol, 0.01% Brij-35, 5% glycerol, 1 mg/ml BSA. All substrates are dissolved and diluted to working stocks in de-ionised water.

[2] = target: T2, Blk(m) (Mus musculus, UniProt P16277); assay: Upstate KinaseProfiler enzyme assay, Blk; type: biochemical; settings: 500 nM compound; read-out: Percent inhibition at 500 nM Blk(m)
T2 construct: purchased Upstate Biotechnology (Dundee, UK), KinaseProfiler service
T2 sequence (P16277 whole entry): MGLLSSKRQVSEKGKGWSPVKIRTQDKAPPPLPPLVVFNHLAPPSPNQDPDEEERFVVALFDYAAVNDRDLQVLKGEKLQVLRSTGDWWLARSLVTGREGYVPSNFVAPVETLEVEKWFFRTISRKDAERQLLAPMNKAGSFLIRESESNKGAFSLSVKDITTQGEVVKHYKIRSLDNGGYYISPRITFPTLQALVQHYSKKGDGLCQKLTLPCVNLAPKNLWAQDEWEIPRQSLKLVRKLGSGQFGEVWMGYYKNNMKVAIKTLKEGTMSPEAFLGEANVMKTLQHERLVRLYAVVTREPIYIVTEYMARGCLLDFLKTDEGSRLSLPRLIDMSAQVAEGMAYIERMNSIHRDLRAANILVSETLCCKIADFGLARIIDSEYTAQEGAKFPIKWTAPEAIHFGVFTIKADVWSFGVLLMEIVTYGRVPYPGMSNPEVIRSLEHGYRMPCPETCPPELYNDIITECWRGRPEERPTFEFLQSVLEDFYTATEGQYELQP
Protocol: as §1, §2

[3] = target: T3, Bmx(h) (Homo sapiens, UniProt P51813); assay: Upstate KinaseProfiler enzyme assay, Bmx; type: biochemical; settings: 500 nM compound; read-out: Percent inhibition at 500 nM Bmx(h)
T3 construct: purchased Upstate Biotechnology (Dundee, UK), KinaseProfiler service
T3 sequence (P51813 1-675): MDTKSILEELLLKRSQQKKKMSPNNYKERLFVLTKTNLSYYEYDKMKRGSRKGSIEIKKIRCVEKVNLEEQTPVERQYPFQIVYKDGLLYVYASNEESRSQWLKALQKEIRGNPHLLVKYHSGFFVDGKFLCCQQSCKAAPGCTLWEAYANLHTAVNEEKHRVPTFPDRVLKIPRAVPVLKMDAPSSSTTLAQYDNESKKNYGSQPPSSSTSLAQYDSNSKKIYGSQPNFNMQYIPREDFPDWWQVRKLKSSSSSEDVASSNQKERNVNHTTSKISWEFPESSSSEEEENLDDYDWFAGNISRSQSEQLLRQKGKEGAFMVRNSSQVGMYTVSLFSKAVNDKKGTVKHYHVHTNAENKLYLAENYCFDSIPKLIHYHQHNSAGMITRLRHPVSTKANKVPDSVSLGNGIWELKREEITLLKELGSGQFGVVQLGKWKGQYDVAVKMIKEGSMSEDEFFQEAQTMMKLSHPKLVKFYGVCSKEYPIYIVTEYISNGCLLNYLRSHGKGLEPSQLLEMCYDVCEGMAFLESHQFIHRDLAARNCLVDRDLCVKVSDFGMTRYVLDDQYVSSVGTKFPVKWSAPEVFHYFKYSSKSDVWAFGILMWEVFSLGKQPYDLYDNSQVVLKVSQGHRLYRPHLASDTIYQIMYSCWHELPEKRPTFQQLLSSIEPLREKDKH
Protocol: as §1, §2

[4] = target: T4, BTK(h) (Homo sapiens, UniProt Q06187); assay: Upstate KinaseProfiler enzyme assay, BTK; type: biochemical; settings: 500 nM compound; read-out: Percent inhibition at 500 nM BTK(h)
T4 construct: purchased Upstate Biotechnology (Dundee, UK), KinaseProfiler service
T4 sequence (Q06187 whole entry): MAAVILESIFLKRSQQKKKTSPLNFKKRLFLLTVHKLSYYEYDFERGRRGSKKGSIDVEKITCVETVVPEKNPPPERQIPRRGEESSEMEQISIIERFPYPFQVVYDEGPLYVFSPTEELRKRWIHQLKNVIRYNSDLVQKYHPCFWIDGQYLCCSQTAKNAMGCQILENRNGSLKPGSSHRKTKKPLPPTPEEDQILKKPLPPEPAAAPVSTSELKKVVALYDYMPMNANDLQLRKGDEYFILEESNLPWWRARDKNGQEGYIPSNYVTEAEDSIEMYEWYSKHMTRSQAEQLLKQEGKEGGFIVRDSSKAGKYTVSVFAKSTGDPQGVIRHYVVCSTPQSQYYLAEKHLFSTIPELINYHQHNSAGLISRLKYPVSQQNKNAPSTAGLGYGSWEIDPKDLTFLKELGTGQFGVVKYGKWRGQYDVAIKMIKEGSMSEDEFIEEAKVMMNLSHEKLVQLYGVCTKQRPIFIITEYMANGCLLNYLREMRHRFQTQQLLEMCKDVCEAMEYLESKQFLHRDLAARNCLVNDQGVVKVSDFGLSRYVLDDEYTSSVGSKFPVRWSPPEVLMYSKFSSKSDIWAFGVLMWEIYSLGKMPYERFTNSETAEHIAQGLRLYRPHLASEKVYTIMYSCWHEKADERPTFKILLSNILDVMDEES
Protocol: as §1, §2

[5] = target: T5, human JAK3 (Homo sapiens, UniProt P52333); assay: Alphascreen tyrosine kinase enzyme assay, JAK3 kinase domain; type: biochemical; settings: read-out: JAK3 IC50_nM
T5 construct: The kinase domain of human JAK3 was amplified; GST (N); made in house; host or cells: Sf9 insect cells (baculovirus)
T5 sequence (P52333 822-1111 limits assumed): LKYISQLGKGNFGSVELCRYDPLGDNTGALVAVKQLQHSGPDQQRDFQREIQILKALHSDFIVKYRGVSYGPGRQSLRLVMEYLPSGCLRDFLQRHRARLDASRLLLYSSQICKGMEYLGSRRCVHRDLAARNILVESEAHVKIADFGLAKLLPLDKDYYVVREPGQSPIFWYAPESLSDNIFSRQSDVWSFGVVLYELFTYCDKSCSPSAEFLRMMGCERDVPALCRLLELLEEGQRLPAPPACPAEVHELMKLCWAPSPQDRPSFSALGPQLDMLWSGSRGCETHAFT
Protocol: (§3) For screening purposes, compounds (in 100% DMSO) were warmed at 37 degrees for at least 20 minutes before use. A […] stock was initially made in assay buffer, where the final concentration of DMSO was 0.3%. The stocks were then diluted in 384 well Optiplates (Packard) where the final concentration of the compound was […].
The kinase domain of human JAK3 was amplified from U937mRNA using the polymerase chain reaction with the following primers: […]
The JAK3 PCR products were cloned into the pDest20 destination expression vector (Gibco). The JAK3 plasmid was then transformed into competent DH10Bac cells (Gibco), and the recombinant baculovirus was prepared via Sf9 insect cell transfection.
(§4) Baculovirus preparations from each of the constructs were infected into either one or five liters of Sf9 cells (Invitrogen) grown in SF-900 medium (Invitrogen) to a cell density of approximately 1-2×10^6 cells/ml. Cells were infected with virus at a MOI of 0.8-3.0. Cells were harvested and lysed. Tyrosine kinase domains were purified by affinity chromatography on a glutathione-agarose column (Scientifix Pty. Ltd. catalog #: GSH-200).
(§5) Kinase assays were performed in 384 well Optiplates (Packard) using an Alphascreen Protein Tyrosine Kinase PY100 detection kit The compounds were pre-incubated with affinity purified PTK domain in the presence of phosphotyrosine assay buffer (10 mM HEPES, pH 7.5, 100 mM MgCl2, 25 mM NaCl, […] and 0.1% Tween 20) for 20 minutes. The compounds were then incubated with substrate in the presence of ATP. The substrate used was susbtrate-1 with the sequence biotin-EGPWLEEEEEAYGWMDF-NH2 [SEQ. ID. NO. 13] (final concentration […]). For HCK 80 μm ATP was used and incubated for 60 minutes. Alphascreen phosphotyrosine acceptor beads followed by streptavidin donor beads at a concentration of 1/100 in stop buffer were added to each well under subdued light and incubated for 2-3 hours., The Alphascreen plates were read on a Packard Fusion Alpha instrument.

[6] = target: T6, human JAK2 (Homo sapiens, UniProt O60674); assay: Alphascreen tyrosine kinase enzyme assay, JAK2 kinase domain; type: biochemical; settings: read-out: JAK2 IC50_nM
T6 construct: The kinase domain of human JAK2 was amplified; GST (N); made in house; host or cells: Sf9 insect cells (baculovirus)
T6 sequence (O60674 849-1124 limits assumed): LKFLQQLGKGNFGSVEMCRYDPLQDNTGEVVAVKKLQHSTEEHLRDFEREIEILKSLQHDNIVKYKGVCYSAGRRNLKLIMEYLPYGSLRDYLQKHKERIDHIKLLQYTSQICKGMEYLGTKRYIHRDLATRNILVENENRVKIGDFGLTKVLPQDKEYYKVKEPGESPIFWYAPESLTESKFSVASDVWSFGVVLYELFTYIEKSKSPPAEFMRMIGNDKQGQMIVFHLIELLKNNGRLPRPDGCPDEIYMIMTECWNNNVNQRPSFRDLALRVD
Protocol: as §3
The kinase domain of human JAK2 was amplified from U937mRNA using the polymerase chain reaction with the following primers: […]
The JAK2 PCR products were cloned into the pDest20 destination vector (Gibco). The JAK2 plasmid was then transformed into competent DH10Bac cells (Gibco), and the recombinant baculovirus was prepared via Sf9 insect cell transfection.
as §4, §5

[7] = system: CTLL2; assay: Cellular screening, CTLL2 cells, Alamar Blue; type: cell-based; settings: Mus musculus, CTLL-2, read-out: CTLL2 IC50_nM
Protocol: (§6) Cell suspensions were prepared by harvesting cells from culture (the cells used in this test were in late log phase growth with high viability.) Cells were diluted in the appropriate growth medium, as described above, to 1.1× final concentration (from 50,000 cell/mL to 200,000 cell/mL, depending on cell line).
(§7) Compounds to be tested were added (10 μL, 10× final concentration) to a flat bottomed 96-well plate. The cellular suspension (90 μL per well) was then added, and the plate incubated for 40 hr at 37° C., 5% CO2. Alamar Blue 10 μL per well was added and the plates returned to the incubator for a further 4-6 hours. The plates were then read at 544 nm.

[8] = system: BaF3 wild-type cells; assay: Cellular screening, BaF3 wild-type cells, Alamar Blue; type: cell-based; settings: Mus musculus, 40 hr, read-out: BAF3wt IC50_nM
Protocol: (§8) For screening purposes, compounds were diluted in 96 well plates at a concentration of 20 μM. Plates were warmed at 37° C. for 30 minutes before the assay was performed.
(§9) The growth factor dependant myelomonocytic cell line BaF3 bearing the pTET-off plasmid (Clontech) was transfected with either pTELJAK2 or pTELJAK3, and the transfected cells were selected for growth-factor independent cell growth. The BaF3 wild-type cells were cultured in DMEM containing 10% FCS, 10% WEHI 3B conditioned medium. The BaF3 TELJAK cells ([…]) were cultured in DMEM 10% Tet-System Approved FBS (without WEHI 3B conditioned medium).
as §6, §7

[9] = target: T7, human JAK1 (Homo sapiens, UniProt P23458); assay: Alphascreen tyrosine kinase enzyme assay, JAK1 kinase domain; type: biochemical; settings: read-out: JAK1 IC50_nM
T7 construct: The kinase domain of human JAK1 was amplified; GST (N); made in house; host or cells: Sf9 insect cells (baculovirus)
T7 sequence (P23458 875-1153 limits assumed): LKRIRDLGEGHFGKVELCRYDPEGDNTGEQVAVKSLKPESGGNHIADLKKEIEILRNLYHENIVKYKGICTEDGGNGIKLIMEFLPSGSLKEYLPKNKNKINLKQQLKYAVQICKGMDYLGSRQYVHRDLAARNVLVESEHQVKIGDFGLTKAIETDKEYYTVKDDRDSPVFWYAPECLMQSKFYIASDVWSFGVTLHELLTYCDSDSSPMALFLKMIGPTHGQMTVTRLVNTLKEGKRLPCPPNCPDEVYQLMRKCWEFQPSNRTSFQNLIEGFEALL
Protocol: as §3
The kinase domain of human JAK1 was amplified from U937mRNA using the polymerase chain reaction with the following primers: […]
The JAK1 PCR products were cloned into the pDest20 destination vector (Gibco). The JAK1 plasmid was then transformed into competent DH10Bac cells (Gibco), and the recombinant baculovirus was prepared via Sf9 insect cell transfection.
as §4, §5

[10] = target: T8, BaF3 TELJAK2 cells (BafT_J2) (Homo sapiens, UniProt O60674); assay: Cellular screening, BaF3 TEL:JAK2 cells, Alamar Blue; type: cell-based; settings: 40 hr, read-out: BafT_J2 IC50_nM
T8 construct: fused on or other part: TEL (ETV6) N-terminal part, coding nucleotides 1-487, serves as the oligomerising partner; It is fused through a Sal I site to the JAK2 kinase domain and expressed from pTRE2 in BaF3 cells bearing pTET-off; P41212 (Transcription factor ETV6)
T8 sequence (O60674 whole entry, change not shown, the tested form may be a part): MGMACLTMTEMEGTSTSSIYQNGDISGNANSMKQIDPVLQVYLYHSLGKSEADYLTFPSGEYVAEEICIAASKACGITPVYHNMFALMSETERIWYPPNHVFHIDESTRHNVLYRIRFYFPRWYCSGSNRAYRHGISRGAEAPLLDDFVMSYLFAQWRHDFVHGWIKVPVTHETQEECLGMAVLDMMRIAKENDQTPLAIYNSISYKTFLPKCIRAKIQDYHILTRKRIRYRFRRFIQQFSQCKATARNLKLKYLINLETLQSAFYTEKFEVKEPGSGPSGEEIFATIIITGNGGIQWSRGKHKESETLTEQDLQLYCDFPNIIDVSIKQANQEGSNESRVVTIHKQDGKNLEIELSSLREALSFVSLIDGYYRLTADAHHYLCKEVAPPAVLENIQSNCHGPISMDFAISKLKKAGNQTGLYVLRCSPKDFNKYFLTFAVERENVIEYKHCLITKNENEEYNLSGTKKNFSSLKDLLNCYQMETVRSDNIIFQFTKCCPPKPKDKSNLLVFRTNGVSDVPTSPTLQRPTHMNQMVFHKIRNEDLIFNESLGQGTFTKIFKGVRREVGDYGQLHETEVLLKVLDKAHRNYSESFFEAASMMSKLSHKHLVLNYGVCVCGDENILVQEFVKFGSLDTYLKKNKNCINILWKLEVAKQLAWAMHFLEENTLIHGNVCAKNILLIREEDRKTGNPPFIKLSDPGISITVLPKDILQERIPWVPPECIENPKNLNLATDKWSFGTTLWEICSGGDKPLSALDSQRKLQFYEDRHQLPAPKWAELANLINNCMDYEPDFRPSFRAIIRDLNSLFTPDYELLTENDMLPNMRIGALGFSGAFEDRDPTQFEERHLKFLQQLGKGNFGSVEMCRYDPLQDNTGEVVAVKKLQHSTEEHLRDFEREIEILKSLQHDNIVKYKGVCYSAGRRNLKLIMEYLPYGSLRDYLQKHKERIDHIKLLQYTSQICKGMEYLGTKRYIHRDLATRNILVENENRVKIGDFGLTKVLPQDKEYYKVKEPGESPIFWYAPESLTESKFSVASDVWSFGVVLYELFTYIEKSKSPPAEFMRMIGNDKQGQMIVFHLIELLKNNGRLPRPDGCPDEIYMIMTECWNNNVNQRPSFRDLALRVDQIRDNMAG
Protocol: as §8
The coding region encompassing nucleotides 1-487 of TEL was amplified by PCR using the oligonucleotides STEL (5′-GGAGGATCCTGATCTCTCTCGCTGTGAGAC-3′) [SEQ ID NO 14] and 3TEL (5′-AGGC GTCGACTTCTTCTTCATGGTTCTG-3′) [SEQ ID NO 15] and U937 mRNA as a template. A […] restriction site was incorporated into the STEL primer, and a Sal I restriction site was incorporated into the 3TEL primer. The regions encompassing the kinase domain of JAK2 (nucleotides 2994-3914; JAK2F 5′-ACGC GTCGACGGTGCCTTTGAAGACCGGGAT-3′ [SEQ ID NO 16]; JAK2R 5′-ATAGTTTAGCGGCCGCTCAGAATGAAGGTCATTT-3′) [SEQ ID NO 17] and JAK3 (nucleotides 2520-3469; JAK3F 5′-GAAGTCGACTATGCCTGCCAAGACCCCACGATCTT-3′) [SEQ ID NO 18] were generated by PCR using Taq DNA polymerase (Gibco/BRL) and […] as a template. A Sal I restriction site was incorporated into the forward primer of JAK2 and JAK3, a Not I site was incorporated into the JAK2 reverse primer and a Xba I site was added to the reverse primer of JAK3.
A TEL/Jak2 fusion was generated by digestion of the TELPCR product with BamH I/Sal I restriction enzymes, digestion of the JAK2 PCR product with Sal I/Not I restriction enzymes, followed by ligation and subcloning of the ligation product into the mammalian expression Vector pTRE 2 (Clontech), which was prepared by digestion with BamH I-Not I restriction enzymes, to give the TEL/Jak2 fusion plasmid pTELJAK2.
as §9, §6, §7

T1 sequence (P35968 20-1356): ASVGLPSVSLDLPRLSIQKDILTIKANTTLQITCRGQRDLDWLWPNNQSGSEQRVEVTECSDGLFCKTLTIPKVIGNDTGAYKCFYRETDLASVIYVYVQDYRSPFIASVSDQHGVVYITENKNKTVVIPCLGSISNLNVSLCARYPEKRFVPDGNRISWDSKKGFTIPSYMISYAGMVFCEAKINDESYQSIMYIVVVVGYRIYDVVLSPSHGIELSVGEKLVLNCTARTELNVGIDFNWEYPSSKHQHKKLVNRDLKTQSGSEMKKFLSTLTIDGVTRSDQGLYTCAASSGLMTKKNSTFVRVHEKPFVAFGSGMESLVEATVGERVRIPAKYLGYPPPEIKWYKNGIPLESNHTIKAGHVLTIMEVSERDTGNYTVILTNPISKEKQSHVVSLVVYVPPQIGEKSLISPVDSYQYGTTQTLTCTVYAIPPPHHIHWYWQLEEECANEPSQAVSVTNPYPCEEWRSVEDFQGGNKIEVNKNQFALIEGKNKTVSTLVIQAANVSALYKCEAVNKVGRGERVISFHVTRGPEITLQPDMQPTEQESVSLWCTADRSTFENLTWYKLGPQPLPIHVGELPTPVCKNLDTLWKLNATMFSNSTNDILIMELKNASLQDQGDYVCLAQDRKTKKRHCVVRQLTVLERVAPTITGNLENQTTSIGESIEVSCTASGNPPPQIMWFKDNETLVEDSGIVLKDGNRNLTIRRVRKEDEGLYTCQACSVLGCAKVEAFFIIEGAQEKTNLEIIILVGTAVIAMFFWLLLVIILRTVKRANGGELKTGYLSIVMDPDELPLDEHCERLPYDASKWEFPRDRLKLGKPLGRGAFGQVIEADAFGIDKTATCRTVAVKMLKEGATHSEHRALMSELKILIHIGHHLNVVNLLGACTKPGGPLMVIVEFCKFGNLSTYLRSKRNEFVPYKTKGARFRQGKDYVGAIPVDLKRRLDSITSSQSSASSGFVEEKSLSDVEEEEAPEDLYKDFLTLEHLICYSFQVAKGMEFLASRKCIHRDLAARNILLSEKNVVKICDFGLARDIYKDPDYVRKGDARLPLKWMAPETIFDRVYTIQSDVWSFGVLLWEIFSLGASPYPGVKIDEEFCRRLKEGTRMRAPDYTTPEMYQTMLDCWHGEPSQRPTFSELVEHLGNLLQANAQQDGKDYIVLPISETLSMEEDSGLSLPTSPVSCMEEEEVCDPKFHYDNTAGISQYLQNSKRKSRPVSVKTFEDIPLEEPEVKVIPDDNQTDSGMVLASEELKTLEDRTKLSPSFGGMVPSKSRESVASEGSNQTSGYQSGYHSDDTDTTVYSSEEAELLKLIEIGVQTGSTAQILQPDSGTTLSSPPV

| Compound | inhibition at 0.5 µM [1] | inhibition at 0.5 µM [2] | inhibition at 0.5 µM [3] | inhibition at 0.5 µM [4] | IC50 [5] | IC50 [6] | IC50 [7] | IC50 [8] | IC50 [9] | GI50 [10] |
| --- | --- | --- | --- | --- | --- | --- | --- | --- | --- | --- |
| C=CC(=O)Nc1ccc(Sc2ccnc(Nc3cc(OC)c(OC)c(OC)c3)n2)cc1 [Compound 71, N-(4-(2-(3,4,5-trimethoxyphenylao)pyrimidin-4-ylthio)phenyl)acrylamide] | 90% | 49% | 36% | 27% |  |  |  |  |  |  |
| Cc1cnc(Nc2ccc(N3CCOCC3)cc2)nc1Sc1ccc(Cn2cnc(C#N)c2C#N)cc1 [Compound 221, 1-(4-(5-methyl-2-(4-morpholinophenylao)pyrimidin-4-ylthio)benzyl)-1H-imidazole-4,5-dicarbonitrile] |  |  |  |  | < 500 nM | > 1000 nM | < 1000 nM | < 1000 nM |  |  |
| O=C(CCNc1ccccc1)Nc1ccc(Sc2ccnc(Nc3ccccc3)n2)cc1 [Compound 351, 3-(phenylao)-N-(4-(2-(phenylao)pyrimidin-4-ylthio)phenyl)propanamide] | 100% | 100% | 100% | 100% |  |  |  |  |  |  |
| C=CC(=O)Nc1cccc(Nc2nccc(Sc3ncccn3)n2)c1 [Compound 3, N-(3-(4-(pyrimidin-2-ylthio)pyrimidin-2-ylao)phenyl)acrylamide] |  |  |  |  | < 100 nM | > 1000 nM | < 5000 nM |  | > 1000 nM |  |
| CC#CC(=O)Nc1cccc(Sc2ccnc(Nc3ccc(N4CCOCC4)cc3)n2)c1 [Compound 331, N-(3-(2-(4-morpholinophenylao)pyrimidin-4-ylthio)phenyl)but-2-ynamide] |  |  |  |  | < 500 nM | > 1000 nM |  |  |  |  |
| C=C(C)C(=O)Nc1cccc(Sc2ccnc(Nc3ccc(N4CCOCC4)cc3)n2)c1 [Compound 115, N-(3-(2-(4-morpholinophenylao)pyrimidin-4-ylthio)phenyl)methacrylamide] | 100% | 100% | 100% | 100% |  |  |  |  |  |  |
| Cc1cnc(Nc2ccc(N3CCOCC3)cc2)nc1Sc1ccc(N)c(C)c1Cl [Compound 169, 4-(4-ao-2-chloro-3-methylphenylthio)-5-methyl-N-(4-morpholinophenyl)pyrimidin-2-ae] |  |  |  |  | < 100 nM | > 1000 nM |  |  | > 1000 nM |  |
| C=CC(=O)Nc1ccc(Sc2nc(Nc3ccc(N4CCOCC4)cc3)ncc2C)c(Cl)c1 [Compound 252, N-(3-chloro-4-(5-methyl-2-(4-morpholinophenylao)pyrimidin-4-ylthio)phenyl)acrylamide] |  |  |  |  | < 100 nM | > 1000 nM | < 1000 nM | > 20000 nM |  | > 20000 nM |
| C=CC(=O)Nc1ccc(Sc2ccnc(Nc3cccc(S(=O)(=O)NCCC(C)C)c3)n2)cc1 [Compound 363, N-(4-(2-(3-(N-isopentylsulfamoyl)phenylao)pyrimidin-4-ylthio)phenyl)acrylamide] |  |  |  |  | < 100 nM | > 1000 nM |  |  |  |  |
| N#CCc1cn(Cc2ccc(Sc3ccnc(Nc4ccc(N5CCOCC5)cc4)n3)cc2)cn1 [Compound 90, 2-(1-(4-(2-(4-Morpholinophenylamino)pyrimidin-4-ylthio)benzyl)-1H-imidazol-4-yl)acetonitrile] |  |  |  |  | < 500 nM | > 1000 nM | < 5000 nM | < 20000 nM |  | < 5000 nM |
